Data taken from patent US9999656B2, “Treatment of short bowel syndrome patients with colon-in-continuity” (Shire-NPS Pharmaceuticals, Inc., priority 2004, dated 2018).

Experiments:
[1] = test system: patients with short bowel syndrome (SBS); assay: 72-hour nutrient balance studies in open-label pilot study of teduglutide; type: in vivo, human; conditions: for Energy Absorption (% of intake), Effect of Treatment (Treatment minus Baseline) mean ± SD / Energy Absorption, Effect of Treatment (Treatment minus Baseline) mean ± SD / Energy Fecal, Effect of Treatment (Treatment minus Baseline) mean ± SD / Urine Wet Weight, Effect of Treatment (Treatment minus Baseline) mean ± SD / Wet Weight Absorption (% of intake), Effect of Treatment (Treatment minus Baseline) mean ± SD / Wet Weight Absorption, Effect of Treatment (Treatment minus Baseline) mean ± SD / Wet Weight Fecal, Effect of Treatment (Treatment minus Baseline) mean ± SD: Days 18-21 vs baseline; for Energy Absorption (% of intake), Effect at Follow up (Follow up minus Baseline) mean ± SD / Energy Absorption, Effect at Follow up (Follow up minus Baseline) mean ± SD / Energy Fecal, Effect at Follow up (Follow up minus Baseline) mean ± SD / Urine Wet Weight, Effect at Follow up (Follow up minus Baseline) mean ± SD / Wet Weight Absorption (% of intake), Effect at Follow up (Follow up minus Baseline) mean ± SD / Wet Weight Absorption, Effect at Follow up (Follow up minus Baseline) mean ± SD / Wet Weight Fecal, Effect at Follow up (Follow up minus Baseline) mean ± SD: follow-up Days 39-42 vs baseline; for decrease in fecal wet weight compared to baseline: 21-day treatment, stated as decrease; for decrease in fecal energy excretion compared to baseline: stated as reduction
Procedure: This was an open-label, pilot study to determine the safety and effect of teduglutide in patients with short bowel syndrome (SBS). The patient's history was reviewed and a physical examination performed to determine eligibility before inclusion in the study. Estimated residual small intestine and colon lengths were determined by reviewing operative reports and available radiographic studies. Eligible patients were admitted as inpatients to hospital wards or General Clinic Research Centers (GCRC) on three separate occasions, 18 days apart, for the last four days and three nights of the baseline period and at the end of the treatment and follow-up periods. Treatment consisted of recombinant teduglutide (supplied by NPS Allelix, Mississauga, ON, Canada) formulated as a lyophilized powder with L-histidine, mannitol, and monobasic and dibasic sodium phosphate (Lot 8502901). Water was added to reconstitute the drug for administration by subcutaneous (s.c.) injections in the abdomen or thigh. Ten SBS patients with jejunostomy received 0.03 mg/kg/d, 0.10 mg/kg/d or 0.15 mg/kg/d once daily for 21 days. Five SBS patients with ≥50% colon-in-continuity received teduglutide 0.10 mg/kg/d once daily for 21 days.
The 72-hour nutrient balance studies were completed with each patient eating their usual diet, calculated from a seven-day food diary completed by the patient during the screening period. It was intended that patients eat the same quantity and quality of food and beverages during each admission. During the 72-hour balance periods, all oral intake (duplicate meals and beverages and declined food), fecal/stomal output, and urine were collected and weighed. All stool samples were refrigerated during the collection period. Stools and diets were separately homogenized and analyzed for energy content (by bomb calorimetry), nitrogen (by the macro-Kjeldahl's method), fat (by the gravimetric technique), and sodium and potassium (by atomic absorption).
Using the SAS (Version 8.2; SAS Institute, Cary, N.C.) statistical program, a Student's paired t test was employed that compared treatment to baseline values, and follow-up to baseline values. No comparisons were made between patients on different doses or with different anatomy due to the limited number of patients in the study. Data are expressed as mean±SD. A value of p<0.05 was considered significant.

[2] = test system: intestinal mucosa of SBS patients; assay: Morphological analysis of intestinal biopsies (villus height, crypt depth, mitotic index); type: in vivo, human
Procedure: Endoscopic examinations were performed in each subject at the completion of baseline, treatment and follow-up phases. All tissue samples for measurement of villus height and crypt depth were prepared and analyzed in a blinded fashion by the same pathologist. Villus height and crypt depth were measured using light microscopy (eyepiece micrometer) as the mean of ten well-oriented villi and crypts. The number of mitotic figures per 100 crypt epithelial cells was calculated.

[3] = Group 2 SBS end-jejunostomy, N=10, 0.03-0.15 mg/kg/d s.c. once daily 21 days
[4] = Group 2 SBS end-jejunostomy, N=10
[5] = Group 2 SBS end-jejunostomy, of N=10
[6] = Group 3 SBS ≥50% colon-in-continuity, N=5, 0.10 mg/kg/d s.c. once daily 21 days
[7] = Group 3 SBS ≥50% colon-in-continuity, N=5
[8] = Group 3 SBS ≥50% colon-in-continuity, of N=5
[9] = Group 4 SBS high dietary compliance, N=10, 21 days
[10] = Group 4 SBS high dietary compliance, N=10
[11] = Group 4 SBS high dietary compliance, of N=10
[12] = jejunum / small intestine biopsies, Group 2 end-jejunostomy

CC[C@H](C)[C@H](NC(=O)[C@H](Cc1ccccc1)NC(=O)[C@H](CC(=O)O)NC(=O)[C@H](CCCNC(=N)N)NC(=O)[C@H](C)NC(=O)[C@H](C)NC(=O)[C@H](CC(C)C)NC(=O)[C@H](CC(N)=O)NC(=O)[C@H](CC(=O)O)NC(=O)[C@H](CC(C)C)NC(=O)[C@@H](NC(=O)[C@@H](NC(=O)[C@H](CC(N)=O)NC(=O)[C@H](CCSC)NC(=O)[C@H](CCC(=O)O)NC(=O)[C@H](CC(=O)O)NC(=O)[C@H](CO)NC(=O)[C@H](Cc1ccccc1)NC(=O)[C@H](CO)NC(=O)CNC(=O)[C@H](CC(=O)O)NC(=O)CNC(=O)[C@@H](N)Cc1c[nH]cn1)[C@@H](C)O)[C@@H](C)CC)C(=O)N[C@@H](CC(N)=O)C(=O)N[C@@H](Cc1c[nH]c2ccccc12)C(=O)N[C@@H](CC(C)C)C(=O)N[C@H](C(=O)N[C@@H](CCC(N)=O)C(=O)N[C@H](C(=O)N[C@@H](CCCCN)C(=O)N[C@H](C(=O)N[C@H](C(=O)N[C@@H](CC(=O)O)C(=O)O)[C@@H](C)O)[C@@H](C)CC)[C@@H](C)O)[C@@H](C)CC [teduglutide, [Gly2]hGLP-2]
Energy Absorption (% of intake), Effect of Treatment (Treatment minus Baseline) mean ± SD [1, 3]: 5 ± 20 % of intake | Energy Absorption, Effect of Treatment (Treatment minus Baseline) mean ± SD [1, 3]: 363 ± 2656 kJ/day | Energy Fecal, Effect of Treatment (Treatment minus Baseline) mean ± SD [1, 3]: -532 ± 1703 kJ/day | Urine Wet Weight, Effect of Treatment (Treatment minus Baseline) mean ± SD [1, 3]: 680 ± 535 g/day | Wet Weight Absorption (% of intake), Effect of Treatment (Treatment minus Baseline) mean ± SD [1, 3]: 20±18 % of intake | Wet Weight Absorption, Effect of Treatment (Treatment minus Baseline) mean ± SD [1, 3]: 788 ± 551 g/day | Wet Weight Fecal, Effect of Treatment (Treatment minus Baseline) mean ± SD [1, 3]: -682 ± 911 g/day | Energy Absorption (% of intake), Effect at Follow up (Follow up minus Baseline) mean ± SD [1, 4]: −6 ± 12 % of intake | Energy Absorption, Effect at Follow up (Follow up minus Baseline) mean ± SD [1, 4]: -800 ± 2958 kJ/day | Energy Fecal, Effect at Follow up (Follow up minus Baseline) mean ± SD [1, 4]: 320 ± 1200 kJ/day | Urine Wet Weight, Effect at Follow up (Follow up minus Baseline) mean ± SD [1, 4]: 11 ± 287 g/day | Wet Weight Absorption (% of intake), Effect at Follow up (Follow up minus Baseline) mean ± SD [1, 4]: −9 ± 16 % of intake | Wet Weight Absorption, Effect at Follow up (Follow up minus Baseline) mean ± SD [1, 4]: -218 ± 577 g/day | Wet Weight Fecal, Effect at Follow up (Follow up minus Baseline) mean ± SD [1, 4]: 278 ± 496 g/day | Energy Absorption (% of intake), Patients With Beneficial Effect [1, 5]: 6 | Energy Absorption (kJ/day), Patients With Beneficial Effect [1, 5]: 6 | Energy Fecal, Patients With Beneficial Effect [1, 5]: 8 | Urine Wet Weight, Patients With Beneficial Effect [1, 5]: 8 | Wet Weight Absorption (% of intake), Patients With Beneficial Effect [1, 5]: 8 | Wet Weight Absorption (g/day), Patients With Beneficial Effect [1, 5]: 9 | Wet Weight Fecal, Patients With Beneficial Effect [1, 5]: 8 | decrease in fecal wet weight compared to baseline ([1]; Group 2 SBS end-jejunostomy): 682 ± 911 g/day | decrease in fecal energy excretion compared to baseline ([1]; Group 2 SBS end-jejunostomy, p>0.05): 532 ± 1703 kJ/day | decrease in fecal energy excretion compared to baseline ([1]; Group 3 SBS colon-in-continuity): 1343 ± 916 kJ/day | Energy Absorption (% of intake), Effect of Treatment (Treatment minus Baseline) mean ± SD [1, 6]: 10±7 % of intake | Energy Absorption, Effect of Treatment (Treatment minus Baseline) mean ± SD [1, 6]: 1027 ± 798 kJ/day | Energy Fecal, Effect of Treatment (Treatment minus Baseline) mean ± SD [1, 6]: -1343 ± 916 kJ/day | Urine Wet Weight, Effect of Treatment (Treatment minus Baseline) mean ± SD [1, 6]: 461 ± 200 g/day | Wet Weight Absorption (% of intake), Effect of Treatment (Treatment minus Baseline) mean ± SD [1, 6]: 26±16 % of intake | Wet Weight Absorption, Effect of Treatment (Treatment minus Baseline) mean ± SD [1, 6]: 751 ± 328 g/day | Wet Weight Fecal, Effect of Treatment (Treatment minus Baseline) mean ± SD [1, 6]: -822 ± 341 g/day | Energy Absorption (% of intake), Effect at Follow up (Follow up minus Baseline) mean ± SD [1, 7]: 10 ± 17 % of intake | Energy Absorption, Effect at Follow up (Follow up minus Baseline) mean ± SD [1, 7]: 907 ± 1146 kJ/day | Energy Fecal, Effect at Follow up (Follow up minus Baseline) mean ± SD [1, 7]: -997 ± 1713 kJ/day | Urine Wet Weight, Effect at Follow up (Follow up minus Baseline) mean ± SD [1, 7]: -90 ± 281 g/day | Wet Weight Absorption (% of intake), Effect at Follow up (Follow up minus Baseline) mean ± SD [1, 7]: 17 ± 30 % of intake | Wet Weight Absorption, Effect at Follow up (Follow up minus Baseline) mean ± SD [1, 7]: 352 ± 525 g/day | Wet Weight Fecal, Effect at Follow up (Follow up minus Baseline) mean ± SD [1, 7]: -240 ± 426 g/day | Energy Absorption (% of intake), Patients With Beneficial Effect [1, 8]: 5 | Energy Absorption (kJ/day), Patients With Beneficial Effect [1, 8]: 5 | Energy Fecal, Patients With Beneficial Effect [1, 8]: 4 | Urine Wet Weight, Patients With Beneficial Effect [1, 8]: 5 | Wet Weight Absorption (% of intake), Patients With Beneficial Effect [1, 8]: 5 | Wet Weight Absorption (g/day), Patients With Beneficial Effect [1, 8]: 5 | Wet Weight Fecal, Patients With Beneficial Effect [1, 8]: 5 | decrease in fecal wet weight compared to baseline ([1]; Group 3 SBS ≥50% colon-in-continuity): 822 ± 341 g/day | Energy Absorption (% of intake), Effect of Treatment (Treatment minus Baseline) mean ± SD [1, 9]: 8±11 % of intake | Energy Absorption, Effect of Treatment (Treatment minus Baseline) mean ± SD [1, 9]: 963 ± 1290 kJ/day | Energy Fecal, Effect of Treatment (Treatment minus Baseline) mean ± SD [1, 9]: -1060 ± 1083 kJ/day | Urine Wet Weight, Effect of Treatment (Treatment minus Baseline) mean ± SD [1, 9]: 725 ± 394 g/day | Wet Weight Absorption (% of intake), Effect of Treatment (Treatment minus Baseline) mean ± SD [1, 9]: 23 ± 16 % of intake | Wet Weight Absorption, Effect of Treatment (Treatment minus Baseline) mean ± SD [1, 9]: 746 ± 436 g/day | Wet Weight Fecal, Effect of Treatment (Treatment minus Baseline) mean ± SD [1, 9]: -769 ± 447 g/day | Energy Absorption (% of intake), Effect at Follow up (Follow up minus Baseline) mean ± SD [1, 10]: 3 ± 16 % of intake | Energy Absorption, Effect at Follow up (Follow up minus Baseline) mean ± SD [1, 10]: 452 ± 1211 kJ/day | Energy Fecal, Effect at Follow up (Follow up minus Baseline) mean ± SD [1, 10]: -98 ± 1674 kJ/day | Urine Wet Weight, Effect at Follow up (Follow up minus Baseline) mean ± SD [1, 10]: 30 ± 285 g/day | Wet Weight Absorption (% of intake), Effect at Follow up (Follow up minus Baseline) mean ± SD [1, 10]: 0 ± 27 % of intake | Wet Weight Absorption, Effect at Follow up (Follow up minus Baseline) mean ± SD [1, 10]: 24 ± 576 g/day | Wet Weight Fecal, Effect at Follow up (Follow up minus Baseline) mean ± SD [1, 10]: 93 ± 500 g/day | Energy Absorption (% of intake), Patients With Beneficial Effect [1, 11]: 9 | Energy Absorption (kJ/day), Patients With Beneficial Effect [1, 11]: 9 | Energy Fecal, Patients With Beneficial Effect [1, 11]: 8 | Urine Wet Weight, Patients With Beneficial Effect [1, 11]: 10 | Wet Weight Absorption (% of intake), Patients With Beneficial Effect [1, 11]: 9 | Wet Weight Absorption (g/day), Patients With Beneficial Effect [1, 11]: 9 | Wet Weight Fecal, Patients With Beneficial Effect [1, 11]: 9 | decrease in fecal energy excretion compared to baseline ([1]; Group 4 SBS high dietary compliance): 1060 ± 1083 kJ/day | improved wet weight absorption ([1]; SBS patient population): 0.75 L | effect on absolute energy absorption relative to native GLP-2 ([1]; at the given doses and treatment periods): 1.5 to 4 fold | reversal of changes at follow-up ([1]; follow-up after cessation of dosing): Most changes in intestinal absorption and histology related to teduglutide treatment had reversed at follow-up | effects on wet weight absorption relative to native GLP-2 pilot study ([1]; in vivo): almost two-fold | number of SBS patients in whom absolute wet weight absorption increased as a percent of intake ([1]; of 15 SBS patients): 13 | number of SBS patients with decreases in energy excretion ([1]; of 15 SBS patients): 12 | number of SBS patients with increased absolute wet weight absorption compared to baseline ([1]; of 15 SBS patients): 15 | number of SBS patients with increased urine weight ([1]; of 15 SBS patients): 13 | sets of colonic biopsies with increased crypt depth ([2]; Group 3 colon-in-continuity): four of five | increase in mitotic index (colonic biopsies) ([2]; colonic biopsies, Group 3 colon-in-continuity, not significant (p=0.170)): 76±112% | mean increase in colonic crypt depth ([2]; colonic biopsies, Group 3 colon-in-continuity, not significant (p=0.330)): 13±22% | increase in crypt depth [2, 12]: 22±18% | increase in mitotic index [2, 12]: 115±108% | increase in villus height [2, 12]: 38±45% | number of patients with significant histological changes in the jejunum ([2]; of the 8 Group 2 patients who were biopsied): 7
